Legend:
[1] = system: leek; assay: Seed treatment of leek with safener (seed coating with rotostat system), field, early post-emergence application of ioxynil; assay type: in vivo, allium porrum
Description: (§1) Leek (allium porrum var. Shelton) seeds were coated in a commercial seed coating machine. Gradually, binder solution with X g of mefenpyr-diethyl was added. Seeds were dried subsequently.
The differently-treated seeds were sown in the field using commercial sowing equipment. After 25 days, the seedlings were sprayed with a standard formulation of ioxynil (®Totril) at an application rate of 112 g a.i./ha ioxynil. At 15 days after spraying the number of collapsed seedlings was counted.

[2] = system: leek; assay: Seed treatment of leek with safener (encrustment method), early post-emergence application of ioxynil; assay type: in vivo, allium porrum
Description: Leek (allium porrum var. Parton) seeds were put in an erlenmeyer flask with a spinning stirring magnet. A droplet of binder (glue) was added and distributed evenly amongst the seeds. Subsequently, a small amount of encrustment powder (X % mefenpyr-diethyl+[100−X]% inert filler material) was added and mixed through the seeds using the stirring magnet. A droplet of binder was added again and this procedure was repeated until all encrustment powder was stuck to the seeds. Seeds were dried subsequently.
The differently-treated seeds were sown in trays. After 9 days, the seedlings were sprayed with 4.0 g/l ioxynil using an atomizer. A dosage of 3 ml per tray was applied, equalizing 1200 g.a.i./hectare. At 6 days after spraying the number of collapsed seedlings was counted.

[3] = system: leek; assay: Fluxofenim safening ioxynil damage in leek (seed treatment); assay type: in vivo, allium porrum
[4] = system: onion; assay: Seed treatment of onion with safener (encrustment with rotostat), early post-emergence application of ioxynil; assay type: in vivo, Allium cepa; conditions: var. Brioso
Description: (§2) Onion (Allium cepa var. Brioso) seeds were encrusted in a commercial seed coating machine. Approximately 1 ml of binder was added. Subsequently, a small amount of encrustment powder (X % Naphthalic Anhydride+[100−X]% inert filler material) was added. Binder was added again and this procedure was repeated until all encrustment powder was stuck to the seeds. Seeds were dried subsequently.
(§3) The differently-treated seeds were sown in trays. After 9 days, the seedlings were sprayed with 1.0 g/l ioxynil using an atomizer. A dosage of 3 ml per tray was applied, equalizing 300 g.a.i./hectare. At 3 days after spraying the number of collapsed seedlings was counted.

[5] = system: onion; assay: Post-emergence application of herbicide and safener by the tank mix method, onion; assay type: in vivo
Description: (§4) Seeds of onion plants were sown in sandy loam soil in round plastic pots of a diameter of 7 cm and covered with a layer of sandy loam of a thickness of about 0.2 cm. The pots were placed in a greenhouse under favorable growth conditions for until the plants had reached the 2-leaves growth stage. Then, a herbicide or—in a parallel experiment—a tank-mix of the herbicide and a safener (using same basic formulation in each case) was applied to the green parts of the plants and the uncovered part of the soil surface with a spray bar using a water application rate of 300 liters per hectare.
(§5) The pots were placed in a greenhouse under favorable growth conditions. Visual scoring of the herbicidal action was carried out 21 or 40 days after treatment with the herbicide or the tank-mix, respectively. Evaluation was carried out on a percentage basis by comparison with untreated control plants (0%=no noticeable effect compared with the untreated plant, 100%=treated plant dies).

[6] = system: leek; assay: Oxabetrinil safening ioxynil damage in leek (seed treatment); assay type: in vivo, allium porrum
[7] = system: leek; assay: Post-emergence application of herbicide and safener by the tank mix method, leek; assay type: in vivo
Description: as §4, with “leek” for “onion”
as §5

[8] = system: onion; assay: Mefenpyr safening oxyfluorfen damage in onion (seed treatment); assay type: in vivo, Allium cepa; conditions: variety Diamante, oxyfluorfen (Goal) 7.5 g a.i./ha 9 days after seeding
Description: as §2, §3
Onion (Allium cepa var. Diamante) were treated with safener, sown, treated with a herbicide and evaluated as described in Example 5 with the difference that the herbicide is oxyfluorfen and the safener is mefenpyr-diethyl.

[9] = system: onion; assay: Benoxacor safening bromoxynil damage in onion (seed treatment); assay type: in vivo, Allium cepa; conditions: variety Diamante; safener 0 g a.i./kg seed; bromoxynil-octanoate (Buctril) 25 g a.i./ha 10 days after seeding
Description: as §2
The differently-treated seeds were sown in trays. After 9 days, the seedlings were sprayed with 1.0 g/l ioxynil using an atomizer. A dosage of 3 ml per tray was applied, equalizing 300 g.a.i./hectare. […]
Onion (Allium cepa var. Diamante) were treated with safener, sown, treated with a herbicide and evaluated as described in Example 5 with the difference that the herbicide is bromoxynil-octanoate and the safener is benoxacor.

[10] = system: leek; assay: Mefenpyr safening Prometryn damage in leek (seed treatment); assay type: in vivo, allium porrum; conditions: prometryn (Gesagard) 750 g a.i./ha 10 days after seeding
Description: as §1
The differently-treated seeds were sown in the field using commercial sowing equipment. […]
Leek seeds (allium porrum, var. Shelton or Parton) were treated with safener, sown, treated with a herbicide and evaluated as described in Example 6 with the difference that the herbicide is prometryn.

Structure (SMILES): N#Cc1cc(I)c(O)c(I)c1 [H1, 4-hydroxy-3,5-di-iodobenzonitrile]
- Damage to leek (in %) 15 DAT ([1]; in vivo): 6%
- Damage to leek (in %) 6 DAT ([2]; in vivo): 52%
- Damage to seedling (% collapsed) at 5 DAT ([3]; in vivo): 16%
- Damage to onion (in %) 3 DAT ([4]; no safener, ioxynil 300 g a.i./ha sprayed 9 days after seeding, collapsed seedlings 3 DAT): 57%
- Damage to onion (in %) variety Blanco Duro ([5]; in vivo): 55%
- Damage to onion (in %) variety Brioso ([5]; in vivo): 45%
- Damage to seedling (% collapsed) at 7 DAT ([6]; in vivo): 45%
- Damage to leek (in %) variety Harston ([7]; in vivo): 40%
- Damage to leek (in %) variety Kenton ([7]; in vivo): 55%

Structure (SMILES): CON(C)C(=O)Nc1ccc(Cl)c(Cl)c1 [H2, linuron]
- Damage to onion (in %) variety Blanco Duro ([5]; variety Blanco Duro, 250 g a.i./ha, scoring 40 DAT): 100%
- Damage to onion (in %) variety Brioso ([5]; variety Brioso, 250 g a.i./ha, scoring 40 DAT): 30%
- Damage to leek (in %) variety Harston ([7]; variety Harston, 250 g a.i./ha, scoring 40 DAT): 20%
- Damage to leek (in %) variety Kenton ([7]; variety Kenton, 250 g a.i./ha, scoring 40 DAT): 20%

Structure (SMILES): COC(=O)c1ccc(CNS(C)(=O)=O)cc1S(=O)(=O)NC(=O)Nc1nc(OC)cc(OC)n1 [H3, methyl 2-[3-(4,6-dimethoxypyrimidin-2-yl)ureidosulfonyl]-4-methanesulfonylaminomethylbenzoate]
- Damage to onion (in %) variety Blanco Duro ([5]; in vivo): 70%
- Damage to onion (in %) variety Brioso ([5]; in vivo): 50%
- Damage to leek (in %) variety Harston ([7]; variety Harston, 50 g a.i./ha, scoring 40 DAT): 50%
- Damage to leek (in %) variety Kenton ([7]; variety Kenton, 50 g a.i./ha, scoring 40 DAT): 45%

Structure (SMILES): COc1cc(OC)nc(NC(=O)NS(=O)(=O)c2cc(NC=O)ccc2C(=O)N(C)C)n1 [H4, N,N-dimethyl-2-[3-(4,6-dimethoxypyrimidin-2-yl)ureidosulfonyl]-4-formylaminobenzamide]
- Damage to onion (in %) variety Blanco Duro ([5]; in vivo): 10%
- Damage to onion (in %) variety Brioso ([5]; in vivo): 30%
- Damage to leek (in %) variety Harston ([7]; in vivo): 50%
- Damage to leek (in %) variety Kenton ([7]; in vivo): 50%

Structure (SMILES): CCOc1cc(Oc2ccc(C(F)(F)F)cc2Cl)ccc1[N+](=O)[O-] [H6, oxyfluorfen]
- Damage to seedling (% collapsed) at 5 DAT ([8]; safener 0 g a.i./kg seed): 83%

Structure (SMILES): CCCCCCCC(=O)Oc1c(Br)cc(C#N)cc1Br [H7, bromoxynil-octanoate]
- Damage to seedling (% collapsed) at 5 DAT [9]: 19%

Structure (SMILES): FC(F)(F)C(=NOCC1OCCO1)c1ccc(Cl)cc1 [fluxofenim, 1-(4-chlorophenyl)-2,2,2-trifluoro-1-ethanone O-(1,3-dioxolan-2-ylmethyl)oxime]
- Damage to seedling (% collapsed) at 5 DAT ([3]; variety Shelton, safener fluxofenim 1 g a.i./kg seed, ioxynil (Totril) 112 g a.i./ha 10 days after seeding): 10%
- Damage to seedling (% collapsed) at 5 DAT ([3]; variety Shelton, safener fluxofenim 2 g a.i./kg seed, ioxynil (Totril) 112 g a.i./ha 10 days after seeding): 6%

Structure (SMILES): CCOC(=O)C1=NN(c2ccc(Cl)cc2Cl)C(C)(C(=O)OCC)C1 (centres unmarked) [mefenpyr-diethyl, ethyl 1-(2,4-dichlorophenyl)-5-(ethoxycarbonyl)-5-methyl-2-pyrazoline-3-carboxylate]
- Damage to leek (in %) 15 DAT ([1]; var. Shelton, field, ST3 = seed treatment 2.0 g a.i./kg mefenpyr-diethyl, ioxynil 112 g a.i./ha 25 days after seeding, 15 DAT): significantly reduced the amount of damage
- damage (collapsed seedlings) versus control-treated seedlings ([2]; var. Parton, mefenpyr seed treatment, then ioxynil 1200 g a.i./ha, 6 days after application): significantly less damage
- Damage to seedling (% collapsed) at 5 DAT ([8]; safener mefenpyr-diethyl 2 g a.i./kg seed): 64%
- Damage to seedling (% collapsed) at 5 DAT ([8]; safener mefenpyr-diethyl 4 g a.i./kg seed): 49%
- Damage to seedling (% collapsed) at 5 DAT ([8]; safener mefenpyr-diethyl 8 g a.i./kg seed): 39%
- Damage to seedling (% collapsed) at 6 DAT ([10]; variety Parton, safener mefenpyr-diethyl 1 g a.i./kg seed): 3%
- Damage to seedling (% collapsed) at 6 DAT ([10]; variety Parton, safener mefenpyr-diethyl 2 g a.i./kg seed): 1%
- Damage to seedling (% collapsed) at 6 DAT ([10]; variety Shelton, safener mefenpyr-diethyl 1 g a.i./kg seed): 2%
- Damage to seedling (% collapsed) at 6 DAT ([10]; variety Shelton, safener mefenpyr-diethyl 2 g a.i./kg seed): 1%

Structure (SMILES): O=C1OC(=O)c2cccc3cccc1c23 [naphthalic anhydride, 1,8-naphthalenedicarboxylic anhydride]
- damage (collapsed seedlings) versus control-treated seedlings ([4]; naphthalic anhydride seed treatment, then ioxynil 300 g a.i./ha, after 3 days): significantly less damage

Structure (SMILES): N#C/C(=N\OCC1OCCO1)c1ccccc1 [oxabetrinil, (Z)-1,3-dioxolan-2-ylmethoxyimino(phenyl)-acetonitrile]
- Damage to seedling (% collapsed) at 7 DAT ([6]; variety Shelton, safener oxabetrinil 1 g a.i./kg seed, ioxynil (Totril) 112 g a.i./ha 10 days after seeding): 25%
- Damage to seedling (% collapsed) at 7 DAT ([6]; variety Shelton, safener oxabetrinil 2 g a.i./kg seed, ioxynil (Totril) 112 g a.i./ha 10 days after seeding): 27%
- Damage to seedling (% collapsed) at 7 DAT ([6]; variety Shelton, safener oxabetrinil 4 g a.i./kg seed, ioxynil (Totril) 112 g a.i./ha 10 days after seeding): 13%

From patent US20070021303A1, “Safening method” (priority 2004, published 2007)
